Test results as given in the supplement of paper PMC10307832.

Experiments:
Assay in all cases: relative viability (nuclei count vs DMSO), 5 days (fraction); higher = more cells survive
[1] = test system: HCC-827
Method in brief: (§1)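 Lung cancer cell lines, seeded in 1536-well plates, were treated the following day by pin tool with a single drug or with five library-drug doses (not always all listed) in √10 steps on top of a fixed anchor-drug dose. Cells were fixed and nuclei stained in one step after 5 days, and nuclei were counted. Relative viability is the nuclei count for treated wells divided by that for vehicle wells, reported as medians of duplicate plates.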

[2] = test system: HCC-78
Method in brief: as §1

[3] = test system: HCC-366
Method in brief: as §1

[4] = test system: SK-MES-1
Method in brief: as §1

[5] = test system: NCI-H1437
Method in brief: as §1

[6] = test system: SK-LU-1
Method in brief: as §1

[7] = test system: NCI-H727
Method in brief: as §1

[8] = test system: COR-L 105
Method in brief: as §1

[9] = test system: UMC-11
Method in brief: as §1

[10] = test system: NCI-H1944
Method in brief: as §1

[11] = test system: NCI-H2085
Method in brief: as §1

[12] = test system: EPLC-272H
Method in brief: as §1

[13] = test system: NCI-H2023
Method in brief: as §1

[14] = test system: NCI-H358
Method in brief: as §1

[15] = test system: HCC-15
Method in brief: as §1

[16] = test system: COR-L23
Method in brief: as §1

[17] = test system: NCI-H2342
Method in brief: as §1

[18] = test system: NCI-H1395
Method in brief: as §1

[19] = test system: NCI-H661
Method in brief: as §1

[20] = test system: HCC-44
Method in brief: as §1

[21] = test system: LCLC-103H
Method in brief: as §1

[22] = test system: NCI-H2405
Method in brief: as §1

[23] = test system: HARA
Method in brief: as §1

[24] = test system: NCI-H1975
Method in brief: as §1

CCCCCCCCCCCC1=C(O)C(=O)C=C(O)C1=O [Embelin] + Cc1cc(Nc2cc(N3CCN(C)CC3)nc(Sc3ccc(NC(=O)C4CC4)cc3)n2)n[nH]1 [Tozasertib] (partner 0.1 µM)
relative viability ([1]; first compound 0.08 µM): 0.428
relative viability ([1]; first compound 0.8 µM): 0.447
relative viability ([1]; first compound 2.53 µM): 0.419
relative viability ([1]; first compound 8 µM): 0.424
relative viability ([2]; first compound 0.08 µM): 0.519
relative viability ([2]; first compound 0.8 µM): 0.511
relative viability ([2]; first compound 2.53 µM): 0.697
relative viability ([2]; first compound 8 µM): 0.437
relative viability ([3]; first compound 0.08 µM): 0.108
relative viability ([3]; first compound 0.8 µM): 0.188
relative viability ([3]; first compound 2.53 µM): 0.177
relative viability ([3]; first compound 8 µM): 0.113
relative viability ([4]; first compound 0.08 µM): 0.959
relative viability ([4]; first compound 0.8 µM): 0.989
relative viability ([4]; first compound 2.53 µM): 0.998
relative viability ([4]; first compound 8 µM): 0.621
relative viability ([5]; first compound 0.08 µM): 0.41
relative viability ([5]; first compound 0.8 µM): 0.417
relative viability ([5]; first compound 2.53 µM): 0.457
relative viability ([5]; first compound 8 µM): 0.448
relative viability ([6]; first compound 0.08 µM): 0.377
relative viability ([6]; first compound 0.8 µM): 0.369
relative viability ([6]; first compound 2.53 µM): 0.379
relative viability ([6]; first compound 8 µM): 0.323
relative viability ([7]; first compound 0.08 µM): 0.552
relative viability ([7]; first compound 0.8 µM): 0.565
relative viability ([7]; first compound 2.53 µM): 0.634
relative viability ([7]; first compound 8 µM): 0.675
relative viability ([8]; first compound 0.08 µM): 0.363
relative viability ([8]; first compound 0.8 µM): 0.386
relative viability ([8]; first compound 2.53 µM): 0.367
relative viability ([8]; first compound 8 µM): 0.35
relative viability ([9]; first compound 0.08 µM): 0.211
relative viability ([9]; first compound 0.8 µM): 0.199
relative viability ([9]; first compound 2.53 µM): 0.184
relative viability ([9]; first compound 8 µM): 0.192
relative viability ([10]; first compound 0.08 µM): 0.262
relative viability ([10]; first compound 0.8 µM): 0.261
relative viability ([10]; first compound 2.53 µM): 0.262
relative viability ([10]; first compound 8 µM): 0.276
relative viability ([11]; first compound 0.08 µM): 0.784
relative viability ([11]; first compound 0.8 µM): 0.939
relative viability ([11]; first compound 2.53 µM): 0.884
relative viability ([11]; first compound 8 µM): 0.859
relative viability ([12]; first compound 0.08 µM): 0.213
relative viability ([12]; first compound 0.8 µM): 0.182
relative viability ([12]; first compound 2.53 µM): 0.277
relative viability ([12]; first compound 8 µM): 0.22
relative viability ([13]; first compound 0.08 µM): 0.412
relative viability ([13]; first compound 0.8 µM): 0.406
relative viability ([13]; first compound 2.53 µM): 0.369
relative viability ([13]; first compound 8 µM): 0.302
relative viability ([14]; first compound 0.08 µM): 0.116
relative viability ([14]; first compound 0.8 µM): 0.0994
relative viability ([14]; first compound 2.53 µM): 0.108
relative viability ([14]; first compound 8 µM): 0.106
relative viability ([15]; first compound 0.08 µM): 0.412
relative viability ([15]; first compound 0.8 µM): 0.486
relative viability ([15]; first compound 2.53 µM): 0.55
relative viability ([15]; first compound 8 µM): 0.401
relative viability ([16]; first compound 0.08 µM): 0.191
relative viability ([16]; first compound 0.8 µM): 0.253
relative viability ([16]; first compound 2.53 µM): 0.233
relative viability ([16]; first compound 8 µM): 0.19
relative viability ([17]; first compound 0.08 µM): 0.6
relative viability ([17]; first compound 0.8 µM): 0.641
relative viability ([17]; first compound 2.53 µM): 0.527
relative viability ([17]; first compound 8 µM): 0.479
relative viability ([18]; first compound 0.08 µM): 0.766
relative viability ([18]; first compound 0.8 µM): 0.725
relative viability ([18]; first compound 2.53 µM): 0.832
relative viability ([18]; first compound 8 µM): 0.722
relative viability ([19]; first compound 0.08 µM): 0.366
relative viability ([19]; first compound 0.8 µM): 0.34
relative viability ([19]; first compound 2.53 µM): 0.318
relative viability ([19]; first compound 8 µM): 0.337
relative viability ([20]; first compound 0.08 µM): 1.03
relative viability ([20]; first compound 0.8 µM): 1.12
relative viability ([20]; first compound 2.53 µM): 0.814
relative viability ([20]; first compound 8 µM): 0.836
relative viability ([21]; first compound 0.08 µM): 0.549
relative viability ([21]; first compound 0.8 µM): 0.557
relative viability ([21]; first compound 2.53 µM): 0.508
relative viability ([21]; first compound 8 µM): 0.501
relative viability ([22]; first compound 0.08 µM): 0.816
relative viability ([22]; first compound 0.8 µM): 0.798
relative viability ([22]; first compound 2.53 µM): 0.847
relative viability ([22]; first compound 8 µM): 0.826
relative viability ([23]; first compound 0.08 µM): 0.106
relative viability ([23]; first compound 0.8 µM): 0.105
relative viability ([23]; first compound 2.53 µM): 0.119
relative viability ([23]; first compound 8 µM): 0.133
relative viability ([24]; first compound 0.08 µM): 0.901
relative viability ([24]; first compound 0.8 µM): 0.745
relative viability ([24]; first compound 2.53 µM): 0.683
relative viability ([24]; first compound 8 µM): 0.839
